The results in this text go back to US7927600B2, “Anti-allergic pharmaceutical composition containing at least one allergen and at least one antihistamine compound” (priority 2001, dated 2011).

The test system of this data set is allergic patients. As to the kind of experiment: Example 4: adverse effects. Format: in vivo, human. The conditions noted are these: patients of Example 4.

Turning to `CCOc1c(N)c2c(c(OCC)c1OCC)C(C1c3c(cc4c(c3OC)OCO4)CCN1C)OC2=O` (stereo not shown) [Hypostamine, tritoqualine], the “Adverse Effects, Conclusion (frequency)” value was “Very rare”.
